Experimental findings from US20090233938A1, “Thiazole derivatives as a2b antagonists” (priority 2004, published 2009) are described below.

In general, Kb refers to the affinity of an antagonist, worked out from how it opposes an agonist. Usually melting point stands for the temperature of the solid-liquid transition.

For one data set, the target named is T1, human adenosine A2b receptor (Homo sapiens, UniProt P29275).
T1 construct: expressed in transfected cells; host or cells: CHO cells co-transfected with reporter plasmid pCRE-LUCI and pA2bRCV
T1 sequence (P29275 1-332): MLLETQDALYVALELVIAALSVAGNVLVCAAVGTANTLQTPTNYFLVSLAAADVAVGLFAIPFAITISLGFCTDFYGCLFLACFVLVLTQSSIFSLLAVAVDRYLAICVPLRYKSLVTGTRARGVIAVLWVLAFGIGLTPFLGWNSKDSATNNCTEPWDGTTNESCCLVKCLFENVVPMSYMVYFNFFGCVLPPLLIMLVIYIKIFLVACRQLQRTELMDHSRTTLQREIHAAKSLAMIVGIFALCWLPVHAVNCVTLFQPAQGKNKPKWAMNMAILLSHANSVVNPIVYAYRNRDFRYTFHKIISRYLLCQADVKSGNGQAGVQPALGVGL
In words: Adenosine A2b receptor reporter gene assay (luciferase, CHO-A2b cells, NECA agonist). It is filed as cell-based. Conditions: CHO cells with pCRE-LUCI and human A2b receptor; antagonist at 100 nM or 1 μM; shift of NECA concentration-response curve; KB=[antagonist]/(concentration ratio−1). On the procedure: Adenosine A2b Receptor Reporter Gene Assay a) Culturing of Chinese Hamster Ovary (CHO) A2b Cell Line
CHO cells transfected with a Luciferase-expressing reporter plasmid (pCRE-LUCI) and with a plasmid carrying the human adenosine A2b receptor structural gene (pA2bRCV) are routinely cultured in Dulbecco's Modified Eagle Medium (DMEM)—supplemented with 10% v/v fetal calf serum (FCS), 2 mM L-glutamine, 0.4 mg/ml L-proline, 1 nM sodium selenite, 0.5 mg/ml Hygromycin B and 1 mg/ml Geneticin—at 37° C., 5% CO2 and 100% humidity. The cells are left to grow to confluence for 4-5 days. The cells obtained are passaged using trypsin/EDTA and split at a ratio of 1 in 5. […]
b) Preparation of Cells for Assay
Prior to the assay, the CHO-A2b cells are plated onto white 96-well View Plate tissue culture plates (Packard) at a density of 50,000 cells per well in 50 μl of DMEM, and the plates are incubated at 37° C., 5% CO2 and 100% humidity. […]
c) Preparation of Reference and Test Compounds
10 mM solutions of the reference compound, Xanthine Amine Cogener (XAC), and the test compound in dimethyl sulfoxide (DMSO) are prepared. The solutions are further diluted with DMSO to 100 μM, then diluted to 10 μM, and finally to 250 nM or 2.5 μM with Assay Buffer (DMEM Phenol Red-free tissue culture media supplemented with 10 μM Rolipram and 10 U/ml adenosine deaminase (ADA). The resulting solutions (40 μl) are added to the cells in the appropriate wells, the final concentration per well being 100 nM or 1 μM, and the plates are incubated at 37° C., 5% CO2 and 100% humidity. […]
d) Luciferase Reporter Gene Assay
5′-N-ethylcarboxamidoadenosine (NECA), an adenosine A2b agonist, is prepared as a […] solution in DMSO and then diluted to 100 μM with Assay Buffer. This solution is serially diluted in Assay Buffer to give a series of 10 NECA concentrations from 100 to 0.01 μM. 10 μl portions of the resulting NECA solutions are added to the mixtures of CHO-A2b cells and reference or test compound solutions prepared as described above (preincubated for 30 minutes), final concentrations ranging from […] per well. The cells are incubated at 37° C., 5% CO2 and 100% humidity for 3 hours to induce release of cAMP, which then binds to cAMP binding protein (CBP) and the resulting complex interacts with the reporter plasmid to express Luciferase. 100 μl of Steady-Glo, a Luciferase assay substrate from Promega, is added to all wells to lyse the cells and generate luminescence in proportion to the amount of Lucifrease produced. The plates are left for a minimum of 5 minutes before being read on the luminescence program of a Topcount NXT microplate scintillation counter (ex Packard). Concentration—response curves are plotted from the luminescence data using Activity base software and KB values for the antagonists under test are calculated from the shifts of the curve at a particular concentration (KB=[antagonist]/(concentration ratio−1)
On the technique in general: In a reporter assay the amount or activity of a reporter protein is the signal.
For `Cc1ccnc(Nc2nc(-c3cccc(C#N)c3)c(-c3ccncn3)s2)c1` [Example 4], the Kb was 38 nM. On to `N#Cc1cccc(Nc2nc(-c3cccc(C#N)c3)c(-c3ccncn3)s2)c1` [Example 6], for which the Kb is 29 nM. As for `N#Cc1cccc(-c2nc(Nc3ccccn3)sc2-c2ccncn2)c1` [Example 9], the Kb was 6 nM.

Consider `N#Cc1cccc(-c2nc(Nc3cnccn3)sc2-c2ccncn2)c1` [Example 12, 3-[2-(Pyrazin-2-ylamino)-5-pyrimidin-4-yl-thiazol-4-yl]-benzonitrile], for which the Kb is 2 nM. On the same count and under the same terms, in the case of `CN(C)c1cc(-c2sc(Nc3cccc(F)c3)nc2-c2cccc(C#N)c2)cnn1` [Example 16] it was 50 nM.

System in another data set: not given
Experiment: not given
Conditions: not given
As to `COc1cccc(C(=O)Nc2nc(-c3cccc(C#N)c3)c(-c3ccncn3)s2)c1` [Example 11, N-[4-(3-Cyano-phenyl)-5-pyrimidin-4-yl-thiazol-2-yl]-3-methoxy-benzamide], the melting point was 255 to 256 °C. Take `N#Cc1cccc(-c2nc(Nc3cnccn3)sc2-c2ccncn2)c1` [Example 12, 3-[2-(Pyrazin-2-ylamino)-5-pyrimidin-4-yl-thiazol-4-yl]-benzonitrile]: the melting point is above 280 °C.

Regarding `N#Cc1cccc(-c2nc(Nc3ccc(C(=O)O)cc3)sc2-c2ccnnc2)c1` [Example 15, 4-[4-(3-Cyano-phenyl)-5-pyridazin-4-yl-thiazol-2-ylamino]-benzoic acid], the melting point is above 275 °C.
